System: human red blood cells (h-RBC)
Experiment: Hemolytic activity
Format: cell-based
Description: Experimental protocols to study hemolysis on human red cells were approved by Ethics Committee of the University “G. d’Annunzio” Chieti-Pescara. Human red cells were from two volunteers, who signed the informed consent for this study.
Hemolytic activity of carvacrol codrugs 1–10 was tested against human red blood cells (h-RBC). Fresh human blood, collected with EDTA, was centrifuged at 3000 rpm for 5 min then washed three times with PBS pH 7.3. Red blood cells were diluted to 4% in PBS and incubated with different codrugs concentrations ranging from 25 to 0.05 mg/mL. After 1 h of incubation at 37°C, the suspensions were sedimented by centrifugation and the release of hemoglobin was determined by absorbance measurement at 405 nm and compared with a 0% hemolysis control (PBS) and a 100% hemolysis control (PBS with 1% v/v Triton X-100). The percentage of hemolysis was calculated using the following equation: Hemolysis (%) = [(OD405sample - OD4050% lysis control)/(OD405100% lysis control - OD4050% lysis contro)] X 100

## C=CCSC[C@H](NC(C)=O)C(=O)Oc1cc(C(C)C)ccc1C [codrug 4, N-Ac-Cys(Allyl)-CAR]
4% h-RBC, 1 h at 37°C
  concentration at which hemolytic activity is over 50%: 5000 µg/mL
h-RBC, at MIC values
  hemolysis / toxicity at MIC values (in words): not toxic at the MIC values

From paper PMC4393269, “Carvacrol Codrugs: A New Approach in the Antimicrobial Plan” (PLoS ONE, 2015)
